Data from PMC5618561 (International Journal of Molecular Sciences, 2017).
Like-named read-outs stand apart in the source and are kept apart here.

How the values were obtained:
[1] = tested on: 2-oxoglutarate oxidation of isolated rat liver mitochondria; test: ADP-stimulated 2-oxoglutarate oxidation of rat liver mitochondria; type: biochemical; settings: 3 min preincubation with 1 mM ATP, 5 mM MgCl2, 10 mM 2-oxoglutarate, 1 mM ADP, read-out: Apparent IC50 of inhibition of 2-oxoglutarate oxidation
[2] = tested on: glutamate oxidation of isolated rat liver mitochondria; test: ADP-stimulated glutamate (+ malate) oxidation of rat liver mitochondria; type: biochemical; settings: 3 min preincubation with 1 mM ATP, 5 mM MgCl2, 10 mM glutamate, 5 mM malate, 1 mM ADP, read-out: Apparent IC50 of inhibition of glutamate oxidation
[3] = target: T1, α-lipoamide dehydrogenase (Rattus norvegicus, UniProt Q6P6R2); test: α-lipoamide dehydrogenase activity in intact mitochondria (re-reduction of NAD(P)+ after α-lipoamide, NAD(P)H fluorescence); type: biochemical; settings: for IC50: read-out: Apparent IC50 of inhibition of α-lipoamide dehydrogenase; for inhibition of α-lipoamide dehydrogenase (in words): rat liver mitochondria, abstract summary
T1 construct: After 3 min incubation of rat liver mitochondria (0.3 mg protein/mL) in MTP medium; from tissue; host or cells: liver mitochondria of Wistar rat
T1 sequence (Q6P6R2 36-509): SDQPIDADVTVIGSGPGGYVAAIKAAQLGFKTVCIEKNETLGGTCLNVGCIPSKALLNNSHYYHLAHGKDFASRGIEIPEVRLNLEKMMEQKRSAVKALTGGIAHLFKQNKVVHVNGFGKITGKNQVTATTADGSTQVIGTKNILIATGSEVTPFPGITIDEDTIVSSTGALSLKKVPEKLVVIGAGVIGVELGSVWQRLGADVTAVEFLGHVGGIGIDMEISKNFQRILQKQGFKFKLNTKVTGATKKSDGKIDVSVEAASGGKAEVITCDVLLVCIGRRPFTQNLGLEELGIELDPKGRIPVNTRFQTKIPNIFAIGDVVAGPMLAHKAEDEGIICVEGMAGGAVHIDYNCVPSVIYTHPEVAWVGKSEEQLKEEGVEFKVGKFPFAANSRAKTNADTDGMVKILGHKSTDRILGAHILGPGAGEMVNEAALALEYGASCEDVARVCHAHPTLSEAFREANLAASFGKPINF

[4] = tested on: pyruvate oxidation of isolated rat liver mitochondria; test: ADP-stimulated pyruvate oxidation of isolated rat liver mitochondria (high-resolution respirometry); type: biochemical
[5] = cited from earlier work
SWV/Finn mice = settings: cited from earlier work
epilepsy model = settings: racemate; dependent on the epilepsy model; cited from earlier work
[6] = tested on: pilocarpine-induced status epilepticus (SE); settings: cited from earlier work; for protection against pilocarpine-induced status epilepticus: rat
[7] = tested on: pyruvate transport of rat liver mitochondria; test: pyruvate transport: pyruvate-dependent swelling of mitochondria in ammonium pyruvate; type: biochemical; settings: 1 mM compound; rat liver mitochondria in 0.1 M ammonium pyruvate
Protocol: (§1) (A) The plotted pyruvate dehydrogenase (PDH) activities are averages of three independent experiments; (B) Swelling of mitochondria in 0.1 M ammonium pyruvate buffer. One representative experiment (out of 3) is shown. […] Experimental conditions as described in Materials and Methods.
For pyruvate transport determinations, the mitochondrial suspension (0.6–0.7 mg protein) was placed into a 3 mL spectrophotometric cuvette, containing 5 mM MgCl2, 2 µM rotenone, 1.5 µg/mL antimycin, and 0.1 M ammonium pyruvate (obtained from ammonium hydroxide and pyruvic acid). When indicated, 1 mM cinnamate was added. Mitochondrial swelling was estimated at 30 °C using a spectrophotometer (Aminco DW 2000, SLM Instruments) at 546 nm.

pyruvate dehydrogenase = target: T2, pyruvate dehydrogenase (Rattus norvegicus, UniProt P26284+P49432); test: pyruvate dehydrogenase (PDH) activity of isolated rat liver mitochondria; type: biochemical; settings: preincubation with 10 mM VPA and 1 mM ATP; excess α-lipoamide dehydrogenase
T2 construct: the mitochondrial suspension (0.3 mg protein) was placed into a 0.5 mL spectrophotometric cuvette; from tissue; host or cells: liver mitochondria of Wistar rat, solubilised with 0.1% N-dodecyl-β-D-maltoside
T2 sequence (P26284 30-390): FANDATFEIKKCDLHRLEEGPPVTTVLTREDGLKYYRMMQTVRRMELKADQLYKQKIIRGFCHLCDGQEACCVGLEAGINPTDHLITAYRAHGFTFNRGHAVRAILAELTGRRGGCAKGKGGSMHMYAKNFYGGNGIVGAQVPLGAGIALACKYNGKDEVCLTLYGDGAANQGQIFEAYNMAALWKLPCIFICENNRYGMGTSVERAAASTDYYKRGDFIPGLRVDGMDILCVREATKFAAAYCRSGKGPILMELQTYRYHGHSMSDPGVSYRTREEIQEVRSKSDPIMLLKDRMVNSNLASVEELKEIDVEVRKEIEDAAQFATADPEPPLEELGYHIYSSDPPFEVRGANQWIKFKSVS
T2 sequence (P49432 31-359): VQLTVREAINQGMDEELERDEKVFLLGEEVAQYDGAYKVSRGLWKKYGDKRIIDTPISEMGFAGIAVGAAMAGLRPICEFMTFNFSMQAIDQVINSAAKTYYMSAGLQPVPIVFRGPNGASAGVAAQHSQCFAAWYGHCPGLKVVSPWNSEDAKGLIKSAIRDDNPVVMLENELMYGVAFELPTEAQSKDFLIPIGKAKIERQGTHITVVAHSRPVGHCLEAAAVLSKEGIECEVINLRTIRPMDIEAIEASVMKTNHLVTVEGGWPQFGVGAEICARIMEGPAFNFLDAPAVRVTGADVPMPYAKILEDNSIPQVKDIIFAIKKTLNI
Protocol: as §1
PDH activity in this suspension was determined according to Scislowski and Davis with the following modifications: the mitochondrial suspension (0.3 mg protein) was placed into a 0.5 mL spectrophotometric cuvette, containing 0.1 M potassium phosphate buffer (pH 7.4), 5 mM MgCl2, 3 mM NAD^+, 0.1 mM CoASH, 2 mM dithiothreitol, 0.1% N-dodecyl-β-D-maltoside, 0.4 mM thiamine pyrophosphate, 20 µg/mL diaphorase (Boehringer Mannheim, Mannheim, Germany), and 10 mM pyruvate. PDH activity was measured at 30 °C using a spectrophotometer (Aminco DW 2000, SLM Instruments, Urbana, IL, USA) with 340–380 nm dual wavelength photometry.

[8] = patients with epilepsy; cited from earlier work
[9] = isolated rat liver mitochondria, 3 min preincubation with drug, 1 mM ATP, 5 mM MgCl2, 10 mM pyruvate, 5 mM malate, ADP, read-out: Apparent IC50 of inhibition of pyruvate oxidation
[10] = SWV/Finn mice, strain highly susceptible to VPA-induced teratogenicity
[11] = isolated rat liver mitochondria, pyruvate-dependent reduction of NAD(P)+, estimated value

Compound | IC50 [1] | IC50 [2] | inhibition of α-lipoamide dehydrogenase (in words) [3] | IC50 [4, 9] | teratogenic effects (SWV/Finn mice; [10]) | other results
CCCC(C(N)=O)C(C)CC (stereo not drawn) [SPD, sec-Butylpropylacetamide] | 1000 µM | 2000 µM | only small effects | 3000 µM | – | IC50 ([3]; […], pyruvate-dependent reduction of NAD(P)+, estimated value): > 1000 µM
CCC(C)C(CC)C(N)=O (stereo not drawn) [VCD, Valnoctamide] | – | – | only small effects | – | did not show any significant teratogenic effects | biotransformation to the corresponding acid ([5]; in vivo): low biotransformation; anticonvulsant activity: concentrations lower than VPA (epilepsy model): 2–16 times; IC50 [3, 11]: > 1000 µM; block of pilocarpine-induced electrographic SE ([6]; 180 mg/kg): did block; protection against pilocarpine-induced status epilepticus ([6]; 65 mg/kg intraperitoneally at seizure onset): protected; protection against pilocarpine-induced status epilepticus ([6]; 80 mg/kg 30 min after seizure onset): protection was lost
CCCC(C(=O)O)C(C)CC (stereo not drawn) [SPA, sec-Butylpropylacetic acid] | 50 µM | 2000 µM | Strong inhibition | 50 µM | – | IC50 ([3]; […], pyruvate-dependent reduction of NAD(P)+ after 75 µM α-lipoamide, preincubation with 1 mM ATP): 100 µM
O=C(O)/C=C/c1ccccc1 [cinnamate] | – | – | – | – | – | effect on pyruvate-dependent swelling velocity (pyruvate transport) [7]: clearly inhibited
Valnoctic acid [VCA] | 200 µM | 2000 µM | – | 900 µM | – | teratogenic effects (SWV/Finn mice; mouse, in vivo): did not show any significant teratogenic effects; IC50 [3]: 300 µM; IC50 ([4]; both substrates summarised together, preincubated in the presence of ATP, read-out: IC50 of inhibition of pyruvate and 2-oxoglutarate oxidation rates of liver mitochondria): 200 to 900 µM
CC[C@H](C)[C@@H](CC)C(N)=O [(2R,3S)-VCD] | – | – | – | – | did not show any significant teratogenic effects | –
CCCC(CCC)C(=O)O [VPA, Valproic acid] | 50 µM | 10000 µM | strongly inhibited | 50 µM | – | effect on pyruvate dehydrogenation velocity (PDH activity) (pyruvate dehydrogenase): slight increase; pyruvate-dependent re-reduction of NAD(P)+ after α-lipoamide ([3]; 0.5 and 1 mM VPA): strongly inhibited; glutamate-dependent re-reduction of NAD(P)+ after α-lipoamide ([3]; glutamate as substrate): no effects; IC50 ([3]; isolated rat liver mitochondria, pyruvate-dependent reduction of NAD(P)+ after 75 µM α-lipoamide, preincubation with 1 mM ATP): 80 µM; therapeutic blood levels [8]: 40 to 100 mg/L; effect on pyruvate-dependent swelling velocity (pyruvate transport) [7]: no effect; IC50 ([4]; isolated rat liver mitochondria, 3 min preincubation with drug, 1 mM ATP, 5 mM MgCl2, 10 mM pyruvate, 5 mM malate, ADP, listed as valproic acid, read-out: Apparent IC50 of inhibition of pyruvate oxidation): ~50 µM
CCCC(CCC)C(N)=O [VPD, Valpromide] | 8000 µM | 3000 µM | only small effects | 5000 µM | – | biotransformation to the corresponding acid ([5]; humans): rapid transformation to VPA; IC50 [3, 11]: > 1000 µM
CC[C@H](C(N)=O)[C@@H](C)CC [(2S,3S)-VCD] | – | – | – | – | did not show any significant teratogenic effects | –
O=[As][O-].[Na+] [arsenite] | – | – | – | – | – | inhibition of DLDH activity [3]: complete inhibition
